Results: PubChem BioAssay AID1259407 (Chemical Carcinogenesis Research Information System (CCRIS), 2018)
Active and inactive are the calls of the source. How the calls were made is not given here.

Test system: CCRIS mutagenicity, Ames/micronucleus/aberration tests
Assay: CCRIS mutagenicity studies

Measured: mutagenic call

ClC(Cl)=C(Cl)Cl
active: Test System: AMES SALMONELLA TYPHIMURIUM, Strain/Indicator: TA100, Metabolic Activation: NONE, Method: SPOT active; positive | Test System: AMES SALMONELLA TYPHIMURIUM, Strain/Indicator: TA100, Metabolic Activation: RAT, KIDNEY, MICROSOMES AND RAT, LIVER, GLUTATHIONE AND GLUTATHIONE TRANSFERASE, Method: PREINCUBATION active; positive | Test System: Ames Salmonella typhimurium, Strain/Indicator: TA1535, Metabolic Activation: None, Method: Gas exposure method active; positive (two experiments) | Test System: Ames Salmonella typhimurium, Strain/Indicator: TA1535, Metabolic Activation: Rat, Liver, S9, Sodium phenobarbital and 5,6-benzoflavone (10%), Method: Gas exposure method active; positive (two experiments)
inactive: End Point: IN VITRO CHROMOSOMAL ABERRATIONS, Test System: CHINESE HAMSTER OVARY CELLS, Metabolic Activation: NONE inactive; negative | End Point: IN VITRO CHROMOSOMAL ABERRATIONS, Test System: CHINESE HAMSTER OVARY CELLS, Metabolic Activation: RAT, LIVER, S-9, AROCLOR 1254 inactive; negative | End Point: IN VITRO CHROMOSOMAL ABERRATIONS, Test System: CHL/IU CELLS, Metabolic Activation: NONE inactive; negative | End Point: IN VITRO CHROMOSOMAL ABERRATIONS, Test System: CHO CELLS, Metabolic Activation: NONE inactive; negative | End Point: IN VITRO CHROMOSOMAL ABERRATIONS, Test System: CHO CELLS, Metabolic Activation: RAT, LIVER, S-9, AROCLOR 1254 inactive; negative | End Point: IN VITRO MICRONUCLEUS, Test System: CHL/IU CELLS, Metabolic Activation: NONE inactive; negative | Test System: AMES SALMONELLA TYPHIMURIUM, Strain/Indicator: TA98, Metabolic Activation: HAMSTER, LIVER, S-9, AROCLOR 1254, Method: PREINCUBATION inactive; negative | Test System: AMES SALMONELLA TYPHIMURIUM, Strain/Indicator: TA98, Metabolic Activation: NONE, Method: PREINCUBATION inactive; negative | Test System: AMES SALMONELLA TYPHIMURIUM, Strain/Indicator: TA98, Metabolic Activation: NONE, Method: STANDARD PLATE inactive; negative | Test System: AMES SALMONELLA TYPHIMURIUM, Strain/Indicator: TA98, Metabolic Activation: RAT, LIVER, S-9, AROCLOR 1254, Method: PREINCUBATION inactive; negative | Test System: AMES SALMONELLA TYPHIMURIUM, Strain/Indicator: TA98, Metabolic Activation: RAT, LIVER, S-9, AROCLOR, Method: STANDARD PLATE inactive; negative | Test System: AMES SALMONELLA TYPHIMURIUM, Strain/Indicator: TA100, Metabolic Activation: HAMSTER, LIVER, S-9, AROCLOR 1254, Method: PREINCUBATION inactive; negative | Test System: AMES SALMONELLA TYPHIMURIUM, Strain/Indicator: TA100, Metabolic Activation: HAMSTER, LIVER, S-9, SODIUM PHENOBARBITAL, Method: STANDARD PLATE (SEALED PLATE) inactive; negative | Test System: AMES SALMONELLA TYPHIMURIUM, Strain/Indicator: TA100, Metabolic Activation: MOUSE, LIVER, S-9, SODIUM PHENOBARBITAL, Method: STANDARD PLATE (SEALED PLATE) inactive; negative | Test System: AMES SALMONELLA TYPHIMURIUM, Strain/Indicator: TA100, Metabolic Activation: NONE, Method: BAG VAPORIZATION inactive; negative | Test System: AMES SALMONELLA TYPHIMURIUM, Strain/Indicator: TA100, Metabolic Activation: NONE, Method: PREINCUBATION inactive; negative | Test System: AMES SALMONELLA TYPHIMURIUM, Strain/Indicator: TA100, Metabolic Activation: NONE, Method: STANDARD PLATE inactive; negative | Test System: AMES SALMONELLA TYPHIMURIUM, Strain/Indicator: TA100, Metabolic Activation: NONE, Method: STANDARD PLATE (SEALED PLATE) inactive; negative | Test System: AMES SALMONELLA TYPHIMURIUM, Strain/Indicator: TA100, Metabolic Activation: RAT, LIVER, S-9, AROCLOR 1254, Method: BAG VAPORIZATION inactive; negative | Test System: AMES SALMONELLA TYPHIMURIUM, Strain/Indicator: TA100, Metabolic Activation: RAT, LIVER, S-9, AROCLOR 1254, Method: PREINCUBATION inactive; negative | Test System: AMES SALMONELLA TYPHIMURIUM, Strain/Indicator: TA100, Metabolic Activation: RAT, LIVER, S-9, AROCLOR, Method: STANDARD PLATE inactive; negative | Test System: AMES SALMONELLA TYPHIMURIUM, Strain/Indicator: TA100, Metabolic Activation: RAT, LIVER, S-9, SODIUM PHENOBARBITAL, Method: STANDARD PLATE (SEALED PLATE) inactive; negative | Test System: AMES SALMONELLA TYPHIMURIUM, Strain/Indicator: TA102, Metabolic Activation: MOUSE, LIVER, S-9, SODIUM PHENOBARBITAL, Method: STANDARD PLATE (SEALED PLATE) inactive; negative | Test System: AMES SALMONELLA TYPHIMURIUM, Strain/Indicator: TA102, Metabolic Activation: NONE, Method: STANDARD PLATE (SEALED PLATE) inactive; negative | Test System: AMES SALMONELLA TYPHIMURIUM, Strain/Indicator: TA102, Metabolic Activation: S-9, Method: STANDARD PLATE inactive; negative | Test System: AMES SALMONELLA TYPHIMURIUM, Strain/Indicator: TA104, Metabolic Activation: MOUSE, LIVER, S-9, SODIUM PHENOBARBITAL, Method: STANDARD PLATE (SEALED PLATE) inactive; negative | Test System: AMES SALMONELLA TYPHIMURIUM, Strain/Indicator: TA104, Metabolic Activation: NONE, Method: STANDARD PLATE (SEALED PLATE) inactive; negative | Test System: AMES SALMONELLA TYPHIMURIUM, Strain/Indicator: TA1535, Metabolic Activation: HAMSTER, LIVER, S-9, AROCLOR 1254, Method: PREINCUBATION inactive; negative | Test System: AMES SALMONELLA TYPHIMURIUM, Strain/Indicator: TA1535, Metabolic Activation: MOUSE, LIVER, S-9, SODIUM PHENOBARBITAL, Method: STANDARD PLATE (SEALED PLATE) inactive; negative | Test System: AMES SALMONELLA TYPHIMURIUM, Strain/Indicator: TA1535, Metabolic Activation: NONE, Method: PREINCUBATION inactive; negative | Test System: AMES SALMONELLA TYPHIMURIUM, Strain/Indicator: TA1535, Metabolic Activation: NONE, Method: STANDARD PLATE (SEALED PLATE) inactive; negative | Test System: AMES SALMONELLA TYPHIMURIUM, Strain/Indicator: TA1535, Metabolic Activation: RAT, LIVER, S-9, AROCLOR 1254, Method: PREINCUBATION inactive; negative | Test System: AMES SALMONELLA TYPHIMURIUM, Strain/Indicator: TA1537, Metabolic Activation: HAMSTER, LIVER, S-9, AROCLOR 1254, Method: PREINCUBATION inactive; negative | Test System: AMES SALMONELLA TYPHIMURIUM, Strain/Indicator: TA1537, Metabolic Activation: NONE, Method: PREINCUBATION inactive; negative | Test System: AMES SALMONELLA TYPHIMURIUM, Strain/Indicator: TA1537, Metabolic Activation: RAT, LIVER, S-9, AROCLOR 1254, Method: PREINCUBATION inactive; negative | Test System: AMES SALMONELLA TYPHIMURIUM, Strain/Indicator: TA2638, Metabolic Activation: S-9, Method: STANDARD PLATE inactive; negative | Test System: AMES SALMONELLA TYPHIMURIUM, Strain/Indicator: UTH8413, Metabolic Activation: NONE, Method: STANDARD PLATE inactive; negative | Test System: AMES SALMONELLA TYPHIMURIUM, Strain/Indicator: UTH8413, Metabolic Activation: RAT, LIVER, S-9, AROCLOR, Method: STANDARD PLATE inactive; negative | Test System: AMES SALMONELLA TYPHIMURIUM, Strain/Indicator: UTH8414, Metabolic Activation: NONE, Method: STANDARD PLATE inactive; negative | Test System: AMES SALMONELLA TYPHIMURIUM, Strain/Indicator: UTH8414, Metabolic Activation: RAT, LIVER, S-9, AROCLOR, Method: STANDARD PLATE inactive; negative | Test System: Ames Salmonella typhimurium, Strain/Indicator: TA98, Metabolic Activation: None, Method: Gas exposure method inactive; negative (two experiments) | Test System: Ames Salmonella typhimurium, Strain/Indicator: TA98, Metabolic Activation: Rat, Liver, S9, Sodium phenobarbital and 5,6-benzoflavone (10%), Method: Gas exposure method inactive; negative (two experiments) | Test System: Ames Salmonella typhimurium, Strain/Indicator: TA100, Metabolic Activation: None, Method: Gas exposure method inactive; negative (two experiments) | Test System: Ames Salmonella typhimurium, Strain/Indicator: TA100, Metabolic Activation: Rat, Liver, S9, Sodium phenobarbital and 5,6-benzoflavone (10%), Method: Gas exposure method inactive; negative (two experiments) | Test System: Ames Salmonella typhimurium, Strain/Indicator: TA1537, Metabolic Activation: None, Method: Gas exposure method inactive; negative (two experiments) | Test System: Ames Salmonella typhimurium, Strain/Indicator: TA1537, Metabolic Activation: Rat, Liver, S9, Sodium phenobarbital and 5,6-benzoflavone (10%), Method: Gas exposure method inactive; negative (two experiments) | Test System: CHO/HGPRT, Strain/Indicator: CHO/GIEMSA, Metabolic Activation: NONE, Method: STANDARD PLATE inactive; negative | Test System: CHO/HGPRT, Strain/Indicator: CHO/GIEMSA, Metabolic Activation: RAT, LIVER, S-9, AROCLOR 1254, Method: STANDARD PLATE inactive; negative | Test System: E. COLI, Strain/Indicator: WP2 (PKM101), Metabolic Activation: S-9, Method: STANDARD PLATE inactive; negative | Test System: E. COLI, Strain/Indicator: WP2 UVRA (PKM101), Metabolic Activation: S-9, Method: STANDARD PLATE inactive; negative | Test System: E. coli, Strain/Indicator: WP2uvrA/pKM101, Metabolic Activation: None, Method: Gas exposure method inactive; negative (two experiments) | Test System: E. coli, Strain/Indicator: WP2uvrA/pKM101, Metabolic Activation: Rat, Liver, S9, Sodium phenobarbital and 5,6-benzoflavone (10%), Method: Gas exposure method inactive; negative (two experiments) | Test System: MOUSE LYMPHOMA, Strain/Indicator: L5178Y (TK+/TK-), Metabolic Activation: NONE, Method: SUSPENSION/PLATE inactive; negative | Test System: MOUSE LYMPHOMA, Strain/Indicator: L5178Y (TK+/TK-), Metabolic Activation: RAT, LIVER, S-9, AROCLOR 1254, Method: SUSPENSION/PLATE inactive; negative
